Experimental data: US10105351B2, “Neurofibromatoses therapeutic agents and screening for same” (University of Central Florida Research Foundation, Inc., priority 2012, dated 2018)
Structures can show the parent of a compound that is named as a salt.

Tests used:
[1] = system: merlin-null Schwann cells; assay: Primary assay: live cell protease assay (CellTiter-Fluor), cell viability; details: 10 uM; 8 replicates, 384 well plate; mean and SD of four assays, two independently derived merlin-null Schwann cell lines at P13-23
Method: Cell viability was measured with the CellTiter-Fluor Live Protease Assay (Promega). […] One way ANOVA Kurskal-Wallis test was used with a Dunn's Multiple Comparison post-test.
(§1) The compounds were tested at 10 uM in 8 replicates in a 384-well format using the live cell protease assay (CellTiter-Fluor) and the orthogonal ATP-based assay (CellTiter-GLO) (both from Promega). We tested the compounds on two Merlin-null Schwann cell lines, L1, (used in the LOPAC screen) at passages ranging from 13-23 and an independently-derived line, L2, tested at passage 20 and 21.

[2] = system: normal nf2^flox2/flox2 Schwann cells; assay: Selectivity assay: cell viability of normal Schwann cells; details: 10 uM; one assay with mouse nf2^flox2/flox2 Schwann cells at P2
Method: as §1

[3] = system: merlin-null Schwann cells; assay: Orthogonal ATP-based luminescence cell viability assay (CellTiter-GLO); details: 10 uM; average of two assays with one cell line at P18-23

SMILES | Primary Assay (m +/− sd), cell viability [1] | Selectivity Assay, cell viability [2] | Orthogonal Assay Average of two, cell viability [3]
COc1ccc(Br)cc1S(=O)(=O)NC(=O)/C=C/c1ccccc1Cc1ccc2ccccc2c1 [L-798106, (2E)-N-[(5-bromo-2-methoxyphenyl)sulfonyl]-3-[2-(2-naphthalenylmethyl)phenyl]-2-propenamide] | 35 +/− 13 % of DMSO Control | 33 % of DMSO Control | 37.6 % of DMSO Control
O=C(CCCN1CCC(O)(c2ccc(Cl)cc2)CC1)c1ccc(F)cc1 [Haloperidol] | 96 +/− 4 % of DMSO Control | 78 % of DMSO Control | 88.8 % of DMSO Control
CC(C)c1ccc2c(c1)c(SC(C)(C)C)c(CC(C)(C)C(=O)O)n2Cc1ccc(Cl)cc1 [L663,536, 3-[3-tert-Butylthio-1-(4-chlorobenzyl)-5-isopropyl-1H-indol-2-yl]-2,2-dimethylpropionic acid, sodium salt hydrate] | 16 +/− 3 % of DMSO Control | 31 % of DMSO Control | 0.1 % of DMSO Control
OCCN1CCN(CCCN2c3ccccc3Sc3ccc(C(F)(F)F)cc32)CC1 [Fluphenazine dihydrochloride] | 71 +/− 6 % of DMSO Control | 43 % of DMSO Control | 45.6 % of DMSO Control
CCN(CC)CCCCNc1ncc2cc(-c3c(Cl)cccc3Cl)c(NC(=O)NC(C)(C)C)nc2n1 [PD-161570, 1-tert-Butyl-3-[6-(2,6-dichlorophenyl)-2-[[4-(diethylamino)butyl]amino]pyrido[2,3-d]pyrimidin-7-yl]urea] | 60 +/− 12 % of DMSO Control | 47 % of DMSO Control | 62.4 % of DMSO Control
CC(C)(Sc1ccc(CCN(CCCCC2CCCCC2)C(=O)NC2CCCCC2)cc1)C(=O)O [GW7647, (2-(4-(2-(1-Cyclohexanebutyl)-3-cyclohexylureido)ethyl)-phenyl-thio)-2-methyl-propionic acid] | 20 +/− 5 % of DMSO Control | 32 % of DMSO Control | 6.3 % of DMSO Control
O=C1Nc2cc(Br)ccc2C1C1Nc2ccccc2C1NO (centres unmarked) [BIO, (2′Z,3′E)-6-Bromoindirubin-3′-oxime] | 20 +/− 8 % of DMSO Control | 31 % of DMSO Control | 0.8 % of DMSO Control
CC[n+]1c(C=CC=C2N(C)c3ccccc3C2(C)C)sc2ccccc21.[I-] [AC-93253 iodide, 2-[3-(1,3-Dihydro-1,3,3-trimethyl-2H-indol-2-ylidene)-1-propenyl]-3-ethyl-benzothiazolium iodide] | 41 +/− 6 % of DMSO Control | 28 % of DMSO Control | 24.3 % of DMSO Control
O=C(O)c1ccc2ccccc2c1O.OCc1cc(C(O)CNCCCCCCOCCCCc2ccccc2)ccc1O (centres unmarked) [Salmeterol xinafoate, salmeterol xinafoate] | 57 +/− 9 % of DMSO Control | 57 % of DMSO Control | 73.7 % of DMSO Control
O=C(CCCN1CCC2(CC1)C(=O)NCN2c1ccccc1)c1ccc(F)cc1 [Spiroperidol] | 90 +/− 6 % of DMSO Control | 85 % of DMSO Control | 84.3 % of DMSO Control
CC(C)(C)c1ccc(C(=O)CCCN2CCC(OC(c3ccccc3)c3ccccc3)CC2)cc1 [Ebastine, ebastine] | 17 +/− 3 % of DMSO Control | – | 0.1 % of DMSO Control
O=C1Nc2ccc(I)cc2C1=Cc1cc(Br)c(O)c(Br)c1 [GW5074, 3-(3,5-Dibromo-4-hydroxybenzyliden)-5-iodo-1,3-dihydroindol-2-one] | 24 +/− 7 % of DMSO Control | 31 % of DMSO Control | 36.4 % of DMSO Control
CN1CCN(CCCN2c3ccccc3Sc3ccc(C(F)(F)F)cc32)CC1 [Trifluoperazine dihydrochloride, trifluoperazine] | 78 +/− 6 % of DMSO Control | 47 % of DMSO Control | 47 % of DMSO Control
CSc1ccc2c(c1)N(CCC1CCCCN1C)c1ccccc1S2 (centres unmarked) [Thioridazine hydrochloride, thioridazine] | 71 +/− 13 % of DMSO Control | 33 % of DMSO Control | 67.9 % of DMSO Control
O=C1NC(=O)/C(=C/c2ccc3nccnc3c2)S1 [AS605240, 5-(6-Quinoxalinylmethylene)-2,4-thiazolidinedione] | 35 +/− 2 % of DMSO Control | 78 % of DMSO Control | 40.1 % of DMSO Control
CC[C@H](C)C(=O)O[C@H]1CCC=C2C=C[C@H](C)[C@H](CC[C@@H]3C[C@@H](O)CC(=O)O3)[C@H]21 [Mevastatin, mevastatin] | 81 +/− 11 % of DMSO Control | 74 % of DMSO Control | 85.1 % of DMSO Control
C[C@@]12C(=O)OC(=O)[C@]1(C)[C@H]1CC[C@@H]2O1 [Cantharidin, cantharidin] | 34 +/− 14 % of DMSO Control | 78 % of DMSO Control | 35.2 % of DMSO Control
COCC(=O)O[C@]1(CCN(C)CCCc2nc3ccccc3[nH]2)CCc2cc(F)ccc2[C@@H]1C(C)C [Mibefradil dihydrochloride hydrate, mibefradil] | 67 +/− 9 % of DMSO Control | 32 % of DMSO Control | 53.3 % of DMSO Control
CCn1cnc2c(Nc3cccc(Cl)c3)nc(N[C@@H]3CCCC[C@@H]3N)nc21 (relative stereo) [CGP-74514A hydrochloride, N2-(cis-2-Aminocyclohexyl)-N6-(3-chlorophenyl)-9-ethyl-9H-purine-2,6-diamine hydrochloride] | 35 +/− 7 % of DMSO Control | 33 % of DMSO Control | 16.1 % of DMSO Control
O=C1c2c(O)ccc(O)c2C(=O)c2c(NCCNCCO)ccc(NCCNCCO)c21 [Mitoxantrone dihydrochloride, 1,4-Dihydroxy-5,8-bis[[2-[(2-hydroxyethyl)amino]ethyl]amino]-9,10-anthracenedione] | 39 +/− 6 % of DMSO Control | 34 % of DMSO Control | 36.8 % of DMSO Control
